These results are taken from publication PMC10726441, “Discovery of Tumor-Targeted 6-Methyl Substituted Pemetrexed and Related Antifolates with Selective Loss of RFC Transport” (ACS Medicinal Chemistry Letters, 2023).

Test [1] relates to PC43-10 (RFC) CHO cells. Briefly: Cell proliferation assay, PC43-10 CHO cells expressing human RFC. It is filed as cell-based, Chinese hamster. The conditions noted are these: Cricetulus griseus, 96 h, 0-1000 nM, mean (standard error), 3-5 experiments. The text has this:
(§1) To assess the impact of 6-methyl substitutions on the bicyclic scaffolds of the pyrrolo[2,3-d]pyrimidine antifolates 1–4 on RFC transport vis-à-vis PCFT, FRα, and FRβ, we used a unique biological readout for transport activity. This involved proliferation assays with isogenic Chinese hamster ovary (CHO) sublines derived from RFC-, FR-, and PCFT-null MTXRIIOua^R2–4 CHO cells[39],[40] engineered to express the human FRα (RT16),[25] FRβ (D4),[25] RFC (PC43–10),[41] or PCFT (R2/PCFT4).[26],[42] As these CHO cell lines are genetically identical except for their folate transporters, differences in inhibition of cell proliferation by specific cytotoxic antifolates directly reflect transporter specificities.[19],[23]−[31],[42] […]
(§2) Reagents for biological studies. Leucovorin [(6R,S) 5-formyl tetrahydrofolate] and methotrexate (MTX) was provided by the Drug Development Branch, National Cancer Institute, Bethesda, MD. Other chemicals were obtained from commercial sources in the highest available purities. Pemetrexed (PMX; 1) [N-{4-[2- (2-amino-3,4-dihydro-4-oxo-7H-pyrrolo[2,3-d]pyrimidin-5-yl)ethyl]benzoyl-L-glutamic acid] (Alimta) was purchased from LC Laboratories (Woburn, MA). The syntheses of compounds 2 and 3 were previously described.7, 8 Additional chemicals were purchased from commercial sources in the highest available purities.
(§3) Cell Culture. The reduced folate carrier (RFC), proton-coupled folate transporter (SLC46A1; PCFT) and folate receptor (FR) α- and β-null Chinese hamster ovary (CHO) cell line MTXRIIOuaR2-49 was a gift from Dr. Wayne Flintoff (University of Western Ontario, London, ON). Four sublines were derived from the R2 subline by transfection with either RFC, PCFT, FRα, or FRβ, giving rise to PC43-10 (expresses human RFC), 10 R2/PCFT4 (expresses human PCFT),11 RT16 (expresses human FRα), 12 and D4 (expresses FRβ) cells. 12 Isogenic CHO sublines were routinely cultured in α-minimal essential medium (α-MEM) supplemented with 100 units/mL penicillin/100 μg/mL streptomycin, 2 mM L-glutamine and 10% bovine calf serum (Sigma-Aldrich). Transfected sublines of R2 cells were cultured in the presence of 1.5 mg/ml G418. […]
(§4) mM L-glutamine. Cell lines were tested for Mycoplasma by PCR using a Mycloplasma testing kit (Venor™ GeM Mycoplasma Detection Kit, Sigma). Frozen stocks were generated from authenticated Mycoplasma-free cultures.
(§5) For cell proliferation assays, CHO, KB, NCI-IGROV1 and IOSE 7576 cells were plated in 96-well dishes at densities ranging from 2500-5000 cells/well in 200 μL media and treated with a range of inhibitors spanning 0-1000 nM. Experiments with RT16, D4, IGROV1, IOSE 7576 and KB cells used folate-free RPMI 1640 (FF RPMI) media with 10% dialyzed fetal bovine serum and 100 units/mL penicillin/100 μg/mL streptomycin, supplemented with 2 nM leucovorin and 2 mM L-glutamine. FR-mediated drug uptake was assessed in parallel incubations including 200 nM folic acid. For R2/PCFT4, PC43-10 and R2 CHO cells, the medium was FF-RPMI supplemented with 10% dialyzed fetal bovine serum, 100 units/mL penicillin/100 μg/mL streptomycin, 25 nM leucovorin and 2 mM L-glutamine.
(§6) Cells were treated over a 96 h period at 37° C with 5% CO2 and relative cell numbers quantified using the CellTiter-blue cell viability assay (Promega, Madison, WI) and a fluorescence plate reader. Raw data were exported to Excel for analysis and the results were plotted using Graphpad Prism 6.0. Determinations of IC50s were made […]
(§7) assays have been previously described.7, 8, 11, 12, 15-20
(§8) Using KB cells, additional proliferation assays were performed with metabolite protection in folate- and glycine-free RPMI1640 with 10% dialyzed fetal bovine serum, 2 mM L-glutamine and antibiotics with 2 nM leucovorin to identify the targeted pathway and enzyme(s). 7, 8, 11, 12, 15-20 Inhibitory effects of the novel analogs on de novo thymidylate biosynthesis and de novo purine nucleotide biosynthesis were tested by incubating drugs with thymidine (10 μM) and adenosine (60 μM), respectively. […]

The test system of test [2] is KB nasopharyngeal carcinoma cells. Briefly: Cell proliferation assay, KB tumor cells. It is filed as cell-based, human. To be noted: for IC50: Homo sapiens, 96 h, 0-1000 nM, mean (standard error), 3-5 experiments.
Source text: (§9) For the tumor cells, except the des-methyl compound 4 with IGROV1 cells, all compounds were inhibitory. […]
(§10) Reagents for biological studies. Leucovorin [(6R,S) 5-formyl tetrahydrofolate] and methotrexate (MTX) was provided by the Drug Development Branch, National Cancer Institute, Bethesda, MD. Other chemicals were obtained from commercial sources in the highest available purities. Pemetrexed (PMX; 1) [N-{4-[2- (2-amino-3,4-dihydro-4-oxo-7H-pyrrolo[2,3-d]pyrimidin-5-yl)ethyl]benzoyl-L-glutamic acid] (Alimta) was purchased from LC Laboratories (Woburn, MA). The syntheses of compounds 2 and 3 were previously described.7, 8 Additional chemicals were purchased from commercial sources in the highest available purities. […]
(§11) KB nasopharyngeal carcinoma cells were obtained from the American Type Culture Collection (Manassas, VA) and IGROV1 (NCI-IGROV1) (passage 5) ovarian adenocarcinoma cells13 were obtained from the Division of Cancer Treatment and Diagnosis, National Cancer Institute (Frederick, MD). Normal ovary cells immortalized with SV40 (IOSE 7576)14 were obtained from the Canadian OvCaRe Cell Bank […]
(§12) (Vancouver, B.C). IGROV1, KB and IOSE 7576 cells were cultured in complete FF-RPMI with 10% fetal bovine serum and 100 units/mL penicillin/100 μg/mL streptomycin, and 2 mM L-glutamine. Cell lines were tested for Mycoplasma by PCR using a Mycloplasma testing kit (Venor™ GeM Mycoplasma Detection Kit, Sigma). Frozen stocks were generated from authenticated Mycoplasma-free cultures.
as §5, §6
(§13) assays have been previously described.7, 8, 11, 12, 15-20 […]
(§14) 7, 8, 11, 12, 15-20 Inhibitory effects of the novel analogs on de novo thymidylate biosynthesis and de novo purine nucleotide biosynthesis were tested by incubating drugs with thymidine (10 μM) and adenosine (60 μM), respectively. Incubation with glycine (130 µM) was used to assess the potential involvement of mitochondrial C1 targeted agents.15 To identify multiple metabolic targets, metabolite additions were added in combination.7, 8, 11, 12, 15-19 Finally, to distinguish targeting between the folate-dependent purine biosynthetic enzymes glycinamide ribonucleotide formyltransferase (GARFTase) and 5-aminoimidazole-4-carboxamide (AICA) ribonucleotide formyltransferase (AICARFTase), co-incubation experiments were performed using AICA hydrochloride (320 μM). 7, 8, 11, 12, […]
(§15) Statistics. The biological data reflect at least three experimental replicates. All statistical comparisons were performed using unpaired t-tests. Biological data are presented as mean values +/- standard errors using data without transformation.

In test [3] the test system is IGROV1 epithelial ovarian cancer cells. Briefly: Cell proliferation assay, IGROV1 tumor cells. It is filed as cell-based, human. The conditions noted are these: for IC50: Homo sapiens, IGROV-1, 96 h, 0-1000 nM, mean (standard error), 3-5 experiments; for potency toward IGROV1 cells compared with IOSE 7576 cells (in words): IGROV1 vs IOSE 7576.
Source text: as §9, §10, §11, §12, §5, §6, §13, §14, §15

The test system of test [4] is R2/PCFT4 (PCFT) CHO cells. Briefly: Cell proliferation assay, R2/PCFT4 CHO cells expressing human PCFT. The conditions noted are these: for IC50: Cricetulus griseus, R2/PCFT4, 96 h, 0-1000 nM, mean (standard error), 3-5 experiments; for RFC/PCFT Selectivity ratios: ratio of IC50 PC43-10 (RFC) to IC50 R2/PCFT4 (PCFT). It is filed as cell-based, Chinese hamster.
Source text: as §1, §2, §3, §4, §5, §6, §7, §8

`Nc1nc2[nH]cc(CCc3ccc(C(=O)N[C@@H](CCC(=O)O)C(=O)O)cc3)c2c(=O)[nH]1` [Compound 1, reference compound]: the IC50 was found to be 30.6 nM in test [1], 9.95 nM in test [2] and 71 nM in test [3]. In addition, the “potency toward IGROV1 cells compared with IOSE 7576 cells (in words)” value in test [3] is reported as “more active toward IGROV1 cells”.

For the compound `Nc1nc2[nH]cc(CCCc3ccc(C(=O)N[C@@H](CCC(=O)O)C(=O)O)cc3)c2c(=O)[nH]1` [Compound 2], in test [3], the IC50 worked out at 52.7 nM and the “potency toward IGROV1 cells compared with IOSE 7576 cells (in words)” value is on record as “more potent toward IOSE 7576 cells than IGROV1 cells”.

Consider `Nc1nc2[nH]cc(CCc3ccc(C(=O)N[C@@H](CCC(=O)O)C(=O)O)s3)c2c(=O)[nH]1` [Compound 3], for which the IC50 turned out to be 59.9 nM in test [1], 80.2 nM in test [4], 833 nM in test [2] and 320 nM in test [3]. Moreover, the “RFC/PCFT Selectivity ratios” value in test [4] is 0.75. Moreover, the “potency toward IGROV1 cells compared with IOSE 7576 cells (in words)” value in test [3] is given as “more potent toward IOSE 7576 cells than IGROV1 cells”.

On to `Nc1nc2[nH]cc(CCc3ccc(C(=O)N[C@@H](CCC(=O)O)C(=O)O)c(F)c3)c2c(=O)[nH]1` [Compound 4], for which the IC50 in test [1] was 169 nM; in test [4], 25.9 nM; in test [2], 77.3 nM; in test [3], > 1000 nM. Also, in test [4], the “RFC/PCFT Selectivity ratios” value came to 6.5. For the same compound, in test [3], the “inhibition of IGROV1 cells (in words)” value was “inactive”.

Take `Cc1[nH]c2nc(N)[nH]c(=O)c2c1CCc1ccc(C(=O)N[C@@H](CCC(=O)O)C(=O)O)cc1` [Compound 5]: the IC50 in test [1] was > 1000 nM; in test [4], 7.66 nM; in test [2], 28.5 nM; in test [3] it was 9.31 nM. In addition, the “RFC/PCFT Selectivity ratios” value in test [4] is >130.

As for `Cc1[nH]c2nc(N)[nH]c(=O)c2c1CCCc1ccc(C(=O)N[C@@H](CCC(=O)O)C(=O)O)cc1` [Compound 6], the IC50 was > 1000 nM in test [1], 64.7 nM in test [4], 49.9 nM in test [2] and 750 nM in test [3]. For the same compound, the “RFC/PCFT Selectivity ratios” value in test [4] was >15.5. In addition, the “inhibition of IGROV1 cells (in words)” value in test [3] was “modestly inhibitory”.

For `Cc1[nH]c2nc(N)[nH]c(=O)c2c1CCc1ccc(C(=O)N[C@@H](CCC(=O)O)C(=O)O)s1` [Compound 7], the IC50 was > 1000 nM in test [1], 51.5 nM in test [4], 3.43 nM in test [2] and 2.52 nM in test [3]. Further, the “RFC/PCFT Selectivity ratios” value in test [4] is on record as >19.4. Also, the “greater potency than the corresponding 6-desmethyl analogue 3, KB cells” value in test [2] (KB cells, relative to compound 3) is 242 fold. For the same compound, the “greater potency than the corresponding 6-desmethyl analogue 3, IGROV1 cells” value in test [3] (IGROV1 cells, relative to compound 3) turned out to be 127 fold.

Turning to `Cc1[nH]c2nc(N)[nH]c(=O)c2c1CCc1ccc(C(=O)N[C@@H](CCC(=O)O)C(=O)O)c(F)c1` [Compound 8], the IC50 in test [1] was > 1000 nM; in test [4] it was > 1000 nM; in test [2], 347 nM; in test [3] it was 134 nM.
